In patent US10408843B2, “Compositions and methods for detecting S-nitrosylation and S-sulfinylation” (The Regents of the University of Michigan, priority 2013, dated 2019):

How the values were obtained:
Recombinant human GAPDH = target: T1, Recombinant human GAPDH (Homo sapiens, UniProt P04406); assay: Labeling of recombinant GAPDH (in-gel fluorescence, LC-MS); format: biochemical; settings: biotin-thiosulfonate modified tryptic peptide
T1 construct: 6His; made in house; host or cells: E. coli BL21
T1 sequence (P04406 whole entry): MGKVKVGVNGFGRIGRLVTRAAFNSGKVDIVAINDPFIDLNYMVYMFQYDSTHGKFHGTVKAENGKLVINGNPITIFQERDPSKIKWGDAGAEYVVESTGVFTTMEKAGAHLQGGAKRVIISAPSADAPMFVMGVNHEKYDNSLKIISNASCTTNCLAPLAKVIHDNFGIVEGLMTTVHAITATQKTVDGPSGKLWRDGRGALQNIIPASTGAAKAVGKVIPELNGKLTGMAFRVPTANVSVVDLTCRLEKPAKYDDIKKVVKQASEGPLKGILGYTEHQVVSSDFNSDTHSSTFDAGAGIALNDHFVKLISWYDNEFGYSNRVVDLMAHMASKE
Method: FIG. 14. Profiling fluorescein-SO2H reactivity and selectivity on S-nitrosylated GAPDH. Recombinant human GAPDH was resuspended in 6 M urea/PBS, treated with 50 mM iodoacetamide for 30 minutes, and mixed with dimedone, ascorbate, peroxide or NO donor (5 minutes). Fluorescein-SO2H (500 μM) was then added to the GAPDH sample for 45 minutes. S-nitrosylated human GAPDH labeling increases upon incubation with the NO donor MAHMA-NONOate, and decreases following treatment with ascorbate. […] Fluorescein-SO2H labeling is unaffected by pre-incubation with peroxide or dimedone.
FIG. 15. Biotin-SO2H reacts with human GAPDH and forms a thiosulfonate. Recombinant human GADPH was labeled with biotin-SO2H for site-specific analysis of S-nitrosylation by high-resolution mass spectrometry.
Given the efficient and selective conjugation of sulfinic acids and nitrosothiols, recombinant human GAPDH were next purified for targeted analysis of S-sulfinylation with biotin-SO2H. […] Biotin-SO2H-labeled GAPDH protein was digested with trypsin and analyzed by high-resolution mass spectrometry, identifying a biotin-thiosulfonate modified peptide encompassing the GAPDH catalytic cysteine (FIG. 15). […] These studies confirm direct detection of native of S-sulfinylation by sulfinic acid probes for mass spectrometry analysis.
Purified human GAPDH was diluted to 0.2 mg/mL in phosphate buffered saline (pH 7.3), and treated with 20 mM iodoacetamide for 30 minutes. Next, the sample was treated with 100 μM biotin-SO2H. Purified human DJ-1 was diluted to 0.2 mg/mL in PBS, and incubated with 20 mM iodoacetamide to alkylated free thiols. Next, the sample was treated with 2 mM hydrogen peroxide for 20 minutes to promote Cys106 sulfinic acid formation. […] Eluted peptides were analyzed using a Waters Synapt G2-S HDMS time-of-flight mass spectrometer in positive mode. […] MS data was searched using Waters Protein Lynx Global Server v3.0 using the exact mass calculated for the cysteine thiosulfonate modification.

293T cell lysates = assay: SILAC quantitative mass spectrometry of biotin-SO2H enrichment; format: biochemical, human; settings: quantified in ≥3 replicates, ≥3 quantified peptides; 400 μM probe
Method: FIG. 16. Quantitative analysis of biotin-SO2H enrichment in 293T cell lysates. Samples were prepared in two sets, one with biotin-SO2H in the “Light” matched with biotin-SO3H in the “Heavy” (N=2), and the other in reverse (N=2). Each was ran as two technical replicated and SILAC ratios (biotin-SO2H/biotin-SO3H) were combined across experiments. “Directions Detected” describes the set of SILAC samples where the protein was quantified. FORWARD refers to biotin-SO2H (light)/biotin-SO3H (heavy), and REVERSE is the opposite direction, biotin-SO2H (heavy)/biotin-SO3H (light). […] Label-free quantification was performed using the Top3 method from the biotin-SO2H labeled pair.
Next, biotin-SO2H labeling was combined with stable-isotope labeling with amino acids in cell culture (SILAC) for quantitative mass spectrometry annotation of endogenous S-sulfinylation in mammalian cells. […] Peptides were analyzed using data-independent acquisition methods in combination with ion mobility separation (HDMS^E) and mobility-dependent collision energy assignment for enhanced fragmentation (see, e.g., Distler, U. et al. Nat Methods (2013)). Through a combination of 4 biological replicates, each with 2 technical replicates, a total of 992 proteins were identified with SILAC ratios >5 (biotin-SO2H/biotin-SO3H), quantified in ≥3 replicates, and represented by ≥3 quantified peptides (FIG. 16). […]

O=C(CCCC[C@@H]1SC[C@@H]2NC(=O)N[C@@H]21)NCCS(=O)O [biotin-SO2H, 2-(5-((3aS,4S,6aR)-2-oxohexahydro-1H-thieno[3,4-d]imidazol-4-yl)pentanamido)ethanesulfinic Acid]
modified cysteine of GAPDH identified by MS/MS (Recombinant human GAPDH): Cys156
proteins identified with SILAC ratios >5 (biotin-SO2H/biotin-SO3H) (293T cell lysates): 992 proteins
